# Results reported in PMC3949714 (PLoS ONE, 2014).
# Read-outs that look alike come from different tables or passages of the source. Where no end group is shown, it is not given here.
# What was measured:
# [1] = target: T1, mu-opioid receptors (MOR) (Mus musculus, UniProt P42866); assay: cell-based; assay type: cell-based, murine
# T1 construct: FLAG; expressed in transfected cells
# [2] = RP-HPLC retention time (read by the paper as polarity); assay type: physicochemical; conditions: water/acetonitrile gradient with 0.1% formic acid, MS TIC detection
# Experimental: An Agilent binary HPLC composing of an Agilent 1100 LC pump, an Agilent 1100 well plate auto-sampler (Agilent Technologies, Santa Clara, CA, USA) and a Jupiter 5 μ (C4, 300 A, 150×2.00 mm, 5 μ) RP HPLC column (Phenomenex, Torrance, CA, USA) were used for separation. The mobile phase flow rate was 200 µl/min and the volume of injection was 20 µL. The separations were performed using a binary solvent gradient; water (Milli-Q; Millipore Corporation, Bedford, MA) which contained 0.1% v/v formic acid was used as the solvent A and acetonitrile (Merck KGaA, Darmstadt, Germany) which contained 0.1% v/v formic acid (Nuplex industries Pty Ltd. (NSW, Australia) was used as the solvent B. The chromatographic separation was achieved using the gradient shown in Table 1.
# An API 3000 tandem mass spectrometer equipped with a turbo ion spray was used as the detector. Detection was performed in total ion current (TIC) mode (MS1/Q1), in positive mode, within the range 200–3000 amu. The data were acquired and processed by Analyst 1.5 software (Applied Biosystems, Foster city, CA, USA). Mass spectra were obtained using: declustering potential (DF) of 16 V, focusing potential (FP) of 120 V, Entrance potential (EP) of 10 V, and Ion spray voltage (IS) of 5000 V. Structure identity of fragments was performed using the respective mass/charge (m/z) values of each peptide metabolite. Direct flow injections were carried out using Model 11 plus Harvard Syringe pump (Harvard Apparatus Inc, Holliston, MA, USA).
# [3] = Biotransformation in homogenised inflamed tissue at pH 5.5 (LC/MS, mean residence time); conditions: for MRT: 120 min, AUMC/AUC of LC/MS peak intensity
# [4] = target: T2, delta-opioid receptors (DOR); assay type: cell-based; conditions: read-out: IC50 for the inhibition of forskolin induced cAMP in HEK-DOP cells
# T2 construct: expressed in transfected cells
# [5] = incubation of BE 1-31, Jupiter C4 300 A column, 200 µl/min
# [6] = formed during incubation of BE 1–31, pH 5.5, 37°C
# [7] = incubation of BE 1-31 (115 µM) in rat inflamed tissue homogenate, MES pH 5.5, 37°C
# [8] = incubation of BE 1-17, Jupiter C4 column
# [9] = incubation of BE 1-17 (115 µM) in rat inflamed tissue homogenate, MES pH 5.5, 37°C
# [10] = incubation of BE 1-13, Jupiter C4 column
# [11] = incubation of BE 1-13 (115 µM) in rat inflamed tissue homogenate, MES pH 5.5, 37°C
# [12] = rat inflamed tissue homogenate, MES pH 5.5, 37°C, 115 µM peptide, LC/MS
# T1 sequence (P42866 whole entry): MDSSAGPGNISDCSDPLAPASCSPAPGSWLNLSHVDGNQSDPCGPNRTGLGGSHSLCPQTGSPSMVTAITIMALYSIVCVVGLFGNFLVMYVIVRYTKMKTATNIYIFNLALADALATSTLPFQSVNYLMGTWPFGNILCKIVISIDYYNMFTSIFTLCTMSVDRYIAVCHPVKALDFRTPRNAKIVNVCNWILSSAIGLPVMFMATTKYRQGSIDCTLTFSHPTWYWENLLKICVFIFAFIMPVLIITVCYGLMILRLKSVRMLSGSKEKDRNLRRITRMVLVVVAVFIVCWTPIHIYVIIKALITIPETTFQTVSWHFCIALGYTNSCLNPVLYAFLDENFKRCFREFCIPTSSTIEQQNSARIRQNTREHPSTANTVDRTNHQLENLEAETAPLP
Compound,"RT [2, 5]","MRT [3, 7]",also measured
"C=CCN1C[C@H](C)N([C@H](c2ccc(C(=O)N(CC)CC)cc2)c2cccc(OC)c2)C[C@H]1C [SNC 80, 4-[(R)-[(2S,5R)-4-allyl-2,5-dimethylpiperazin-1-yl](3-methoxyphenyl)methyl]-N,N-diethylbenzamide, reference compound]",,,"IC50 ([1]; Table 2 as titled, 20000 cells/well, FSK 100 µM, 0.3 nM to 1 µM in half log intervals, 30 min, Alphascreen, one-site fit, at least three independent experiments, read-out: IC50 for the inhibition of forskolin induced cAMP in HEK-MOP cells): 8.1 nM"
"BE 10-16: beta-endorphin intermediate fragment, residues 10-16 (SQTPLVT; Beta-endorphin; UniProt P01189 246-252, looked up, fragment)",19 min,44.3,"Time observed as metabolite in homogenised inflamed tissue [3, 6]: over 60 minutes"
"BE 10-18: beta-endorphin fragment, residues 10-18 (SQTPLVTLF; Beta-endorphin; UniProt P01189 246-254, looked up, fragment)",28.2 min,13.3,
"BE 10-24: beta-endorphin fragment, residues 10-24 (SQTPLVTLFKNAIIK; Beta-endorphin; UniProt P01189 246-260, looked up, fragment)",28.2 min,11.3,
"BE 10-28: beta-endorphin fragment, residues 10-28 (SQTPLVTLFKNAIIKNAYK; Beta-endorphin; UniProt P01189 246-264, looked up, fragment)",26.9 min,32.3,
"BE 10-31: beta-endorphin fragment, residues 10-31 (SQTPLVTLFKNAIIKNAYKKGE; Beta-endorphin; UniProt P01189 246-267, looked up, fragment)",24.9 min,29,
"BE 15-24: beta-endorphin fragment, residues 15-24 (VTLFKNAIIK; Beta-endorphin; UniProt P01189 251-260, looked up, fragment)",22.44 min,25.2,
"BE 18-31: beta-endorphin fragment, residues 18-31 (FKNAIIKNAYKKGE; Beta-endorphin; UniProt P01189 254-267, looked up, fragment)",16.1 min,18.1,
"BE 19-30: beta-endorphin fragment, residues 19-30 (KNAIIKNAYKKG; Beta-endorphin; UniProt P01189 255-266, looked up, fragment)",14.3 min,72.2,
"BE 19-31: beta-endorphin C-terminal fragment, residues 19-31 (KNAIIKNAYKKGE; Beta-endorphin; UniProt P01189 255-267, looked up, fragment)",13.67 min,80,
"BE 20-24: beta-endorphin intermediate fragment, residues 20-24 (NAIIK; Beta-endorphin; UniProt P01189 256-260, looked up, fragment)",16.1 min,98,
"BE 20-27: beta-endorphin intermediate fragment, residues 20-27 (NAIIKNAY; Beta-endorphin; UniProt P01189 256-263, looked up, fragment)",16.1 min,97.1,
"BE 20-28: beta-endorphin intermediate fragment, residues 20-28 (NAIIKNAYK; Beta-endorphin; UniProt P01189 256-264, looked up, fragment)",16.1 min,87.6,
"BE 20-29: beta-endorphin fragment, residues 20-29 (NAIIKNAYKK; Beta-endorphin; UniProt P01189 256-265, looked up, fragment)",14.3 min,8.4,
"BE 20-31: beta-endorphin C-terminal fragment, residues 20-31 (NAIIKNAYKKGE; Beta-endorphin; UniProt P01189 256-267, looked up, fragment)",14.3 min,72.2,
YGGFMTSEK [BE 1–9],20.2 min,11.4,"RT [2, 8]: 18.13 min; MRT [3, 9]: 28; Agonist character at MOR (extent of cAMP inhibition) [1]: partial agonist"
YGGFMTSEKSQ [BE 1–11],19.96 min,57.8,"Rt ([2]; incubation of BE 1-11, Jupiter C4 column): 17.4 min; Rt [2, 10]: 17.4 min; RT [2, 8]: 17.58 min; IC50 [4]: 18 nM; MRT ([3]; incubation of BE 1-11 (115 µM) in rat inflamed tissue homogenate, MES pH 5.5, 37°C): 11; MRT [3, 11]: 10.5; MRT [3, 9]: 17.2; Incubation period after which the peptide was undetectable [3, 12]: 30 min; Effect of naloxone pre-treatment on cAMP inhibition through MOR [1]: inhibited by naloxone"
YGGFMTSEKSQTP [BE 1–13],20.9 min,44,"Rt [2, 10]: 18.4 min; Rt ([2]; incubation of BE 1-13, Jupiter C4 column, listed as BE 1-13): 18.5 min; RT [2, 8]: 18.6 min; RT ([2]; incubation of BE 1-17, Jupiter C4 column, listed as BE 1-13): 18.78 min; IC50 [4]: 59 nM; Time present as metabolite within inflamed tissue homogenates [3, 6]: over 1 hour; MRT [3, 11]: 8.3; MRT [3, 9]: 21.7; Time for which the peptide was detected in inflamed tissue homogenates [3, 12]: 30 min; Effect of naloxone pre-treatment on cAMP inhibition through MOR [1]: inhibited by naloxone"
YGGFMTSEKSQTPLVTL [BE 1–17],24.5 min,25,"RT [2, 8]: 24.5 min; RT ([2]; incubation of BE 1-17, Jupiter C4 column, listed as BE 1-17): 24.3 min; IC50 [4]: 25 nM; MRT [3, 9]: 5.6; Incubation period after which the peptide was undetectable [3, 12]: 15 min; Effect of naloxone pre-treatment on cAMP inhibition through MOR [1]: inhibited by naloxone"
YGGFMTSEKSQTPLVTLFKN [BE 1–20],25.2 min,34.2,IC50 [4]: 55 nM; Effect of naloxone pre-treatment on cAMP inhibition through MOR [1]: inhibited by naloxone; IC50 ([1]; read-out: IC50 for the inhibition of forskolin induced cAMP in HEK-MOP cells): 5 nM
"YGGFMTSEKSQTPLVTLFKNAIIKNVHKKGQ [BE 1–31, Beta-endorphin]",25.8 min,2.9,"IC50 [4]: 57 nM; Peak intensity observed (remaining) at 15 min ([3]; rat inflamed paw tissue homogenate (1 g/10 ml MES buffer) pH 5.5, 37°C, 115 µM peptide, LC/MS): 7.5%; Effect of naloxone pre-treatment on cAMP inhibition through MOR [1]: inhibited by naloxone; IC50 [1]: 24 nM"
